Assay results as given in US12139492B2 (Endotarget Inc., priority 2021, dated 2024).
Like-named read-outs stand apart in the source and are kept apart here.

Key:
Mino cells = experiment: Antiproliferative effect, MTS cell viability assay, Mino cells; format: cell-based; conditions: Homo sapiens, MINO, Mino mantle cell lymphoma cells; read-out: IC50 (anti-proliferation) Mino cells
How it was run: (§1)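 Cells were exposed to compound at 0, 0.001, 0.01, 0.1, 1 and 10 μM for 72 h. Viability was then measured by MTS assay, reading formazan produced by metabolically active cells as absorbance at 490 nm.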

JeKo-1 cells = experiment: Antiproliferative effect, MTS cell viability assay, JeKo-1 cells; format: cell-based; conditions: Homo sapiens; JeKo-1 mantle cell lymphoma cells; read-out: IC50 (anti-proliferation) JeKO-1 cells
How it was run: as §1

BTK = BTK (Homo sapiens, UniProt Q06187); experiment: Degradation of BTK protein in Namalwa cells (Western blot; DC50, Dmax); conditions: for DC50: cell line not given
[1] = read-out: DC50 (BTK degradation), concentration giving 50% reduction of BTK expression level
[2] = read-out: Dmax (BTK degradation)

BTK, sequence (Q06187 whole entry): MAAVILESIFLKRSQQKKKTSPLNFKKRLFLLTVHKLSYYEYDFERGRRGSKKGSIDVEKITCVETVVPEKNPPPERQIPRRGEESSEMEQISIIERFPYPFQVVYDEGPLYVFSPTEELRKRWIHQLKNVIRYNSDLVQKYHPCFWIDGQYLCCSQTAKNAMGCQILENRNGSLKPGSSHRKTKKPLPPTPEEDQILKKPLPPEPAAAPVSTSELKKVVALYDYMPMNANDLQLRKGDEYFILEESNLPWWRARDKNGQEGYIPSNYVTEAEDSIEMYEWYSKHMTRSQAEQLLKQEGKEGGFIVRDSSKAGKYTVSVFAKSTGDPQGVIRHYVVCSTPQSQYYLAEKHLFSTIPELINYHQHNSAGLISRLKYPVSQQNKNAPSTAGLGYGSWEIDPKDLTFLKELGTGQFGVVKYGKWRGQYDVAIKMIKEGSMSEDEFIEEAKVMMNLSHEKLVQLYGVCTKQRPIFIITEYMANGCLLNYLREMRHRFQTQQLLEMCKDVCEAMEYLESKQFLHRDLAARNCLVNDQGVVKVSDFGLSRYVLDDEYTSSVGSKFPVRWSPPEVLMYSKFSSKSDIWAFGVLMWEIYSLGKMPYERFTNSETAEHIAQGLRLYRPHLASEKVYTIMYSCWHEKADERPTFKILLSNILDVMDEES

Row | Compound | DC50 (BTK; [1]) [µM] | Dmax (BTK; [2]) [%] | Dmax (BTK) [%] | DC50 (BTK; BTK degradation) [µM] | IC50 (Mino cells) [µM] | IC50 (JeKo-1 cells) [µM]
1 | NC(=O)c1c(-c2ccc(Oc3ccccc3)cc2)nn2c1NCCC2C1CCN(CC2CCN(CCN3CCN(c4ccc5c(c4)C(=O)N(C4CCC(=O)NC4=O)C5=O)CC3)CC2)CC1 (centres unmarked) [Compound 315, 7-(1-((1-(2-(4-(2-(2,6-dioxopiperidin-3-yl)-1,3-dioxoisoindolin-5-yl)piperazin-1-yl)ethyl)piperidin-4-yl)methyl)piperidin-4-yl)-2-(4-phenoxyphenyl)-4,5,6,7-tetrahydropyrazolo[1,5-a]pyrimidine-3-carboxamide] | – | – | > 75 | > 0.05 | 1 to 10 | 1 to 10
2 | NC(=O)c1c(-c2ccc(Oc3ccccc3)cc2)nn2c1NCCC2C1CCN(CC2CCN(CC3CCN(c4ccc5c(c4)CN(C4CCC(=O)NC4=O)C5=O)CC3)CC2)CC1 (centres unmarked) [Compound 314, 7-(1-((1-((1-(2-(2,6-dioxopiperidin-3-yl)-1-oxoisoindolin-5-yl)piperidin-4-yl)methyl)piperidin-4-yl)methyl)piperidin-4-yl)-2-(4-phenoxyphenyl)-4,5,6,7-tetrahydropyrazolo[1,5-a]pyrimidine-3-carboxamide] | – | – | > 90 | 0.01 to 0.05 | 1 to 10 | 1 to 10
3 | Nc1ncnc2c1c(-c1ccc(Oc3ccccc3)cc1)nn2C1CCN(C2CCN(C(=O)N3CCC(CN4CCN(c5ccc6c(c5)C(=O)N(C5CCC(=O)NC5=O)C6=O)CC4)CC3)CC2)CC1 (centres unmarked) [Compound 239, 5-(4-((1-(4-(4-amino-3-(4-phenoxyphenyl)-1H-pyrazolo[3,4-d]pyrimidin-1-yl)-[1,4′-bipiperidine]-1′-carbonyl)piperidin-4-yl)methyl)piperazin-1-yl)-2-(2,6-dioxopiperidin-3-yl)isoindoline-1,3-dione] | – | – | > 90 | 0.01 to 0.05 | 1 to 10 | < 1
4 | Nc1ncnc2c1c(-c1ccc(Oc3ccccc3)cc1)nn2C1CCN(C2CCN(C(=O)N3CCN(C4CCN(c5ccc6c(c5)C(=O)N(C5CCC(=O)NC5=O)C6=O)CC4)CC3)CC2)CC1 (centres unmarked) [Compound 233, 5-(4-(4-(4-(4-amino-3-(4-phenoxyphenyl)-1H-pyrazolo[3,4-d]pyrimidin-1-yl)-[1,4′-bipiperidine]-1′-carbonyl)piperazin-1-yl)piperidin-1-yl)-2-(2,6-dioxopiperidin-3-yl)isoindoline-1,3-dione] | – | – | > 75 | > 0.05 | 1 to 10 | 1 to 10
5 | Nc1ncnc2c1c(-c1ccc(Oc3ccccc3)cc1)nn2C1CCN(C2CCN(C(=O)N3CCN(CCCC4CCN(c5ccc6c(c5)CN(C5CCC(=O)NC5=O)C6=O)CC4)CC3)CC2)CC1 (centres unmarked) [Compound 260, 3-(5-(4-(3-(4-(4-(4-amino-3-(4-phenoxyphenyl)-1H-pyrazolo[3,4-d]pyrimidin-1-yl)-[1,4′-bipiperidine]-1′-carbonyl)piperazin-1-yl)propyl)piperidin-1-yl)-1-oxoisoindolin-2-yl)piperidine-2,6-dione] | – | – | > 75 | 0.01 to 0.05 | 1 to 10 | 1 to 10
6 | NC(=O)c1c(-c2ccc(Oc3ccccc3)cc2)nn2c1NCC[C@H]2C1CCN(C(=O)N2CCN(CCN3CCN(c4ccc5c(c4)CN(C4CCC(=O)NC4=O)C5=O)CC3)CC2)CC1 (stereo partly drawn) [Compound 298, (7S)-7-(1-(4-(2-(4-(2-(2,6-dioxopiperidin-3-yl)-1-oxoisoindolin-5-yl)piperazin-1-yl)ethyl)piperazine-1-carbonyl)piperidin-4-yl)-2-(4-phenoxyphenyl)-4,5,6,7-tetrahydropyrazolo[1,5-a]pyrimidine-3-carboxamide] | – | – | > 90 | 0.01 to 0.05 | 1 to 10 | 1 to 10
7 | NC(=O)c1c(-c2ccc(Oc3ccccc3)cc2)nn2c1NCC[C@H]2C1CCN(C2CCN(CCN3CCC(c4ccc5c(c4)C(=O)N(C4CCC(=O)NC4=O)C5=O)CC3)CC2)CC1 (stereo partly drawn) [Compound 327, (7S)-7-(1′-(2-(4-(2-(2,6-dioxopiperidin-3-yl)-1,3-dioxoisoindolin-5-yl)piperidin-1-yl)ethyl)-[1,4′-bipiperidin]-4-yl)-2-(4-phenoxyphenyl)-4,5,6,7-tetrahydropyrazolo[1,5-a]pyrimidine-3-carboxamide] | – | – | > 75 | 0.01 to 0.05 | 1 to 10 | > 10
8 | Nc1ncnc2c1c(-c1ccc(Oc3ccccc3)cc1)nn2C1CCN(C2CCN(C(=O)N3CCN(CCN4CCN(c5ccc6c(c5)C(=O)N(C5CCC(=O)NC5=O)C6=O)CC4)CC3)CC2)CC1 (centres unmarked) [Compound 245] | – | – | > 75 | 0.01 to 0.05 | 1 to 10 | 1 to 10

Second part, led by results:

Row | DC50 (BTK; [1]) [µM] | Dmax (BTK; [2]) [%] | Dmax (BTK) [%] | DC50 (BTK; BTK degradation) [µM] | Compound | IC50 (Mino cells) [µM] | IC50 (JeKo-1 cells) [µM]
9 | > 0.05 | > 50 | – | – | NC(=O)c1c(-c2ccc(Oc3ccccc3)cc2)nn2c1NCC[C@H]2C1CCN(CC2CCN(C(=O)N3CCN(c4ccc5c(c4)CN(C4CCC(=O)NC4=O)C5=O)CC3)CC2)CC1 (stereo partly drawn) [Compound 398, (7S)-7-(1-((1-(4-(2-(2,6-dioxopiperidin-3-yl)-1-oxoisoindolin-5-yl)piperazine-1-carbonyl)piperidin-4-yl)methyl)piperidin-4-yl)-2-(4-phenoxyphenyl)-4,5,6,7-tetrahydropyrazolo[1,5-a]pyrimidine-3-carboxamide] | > 10 | > 10
10 | – | – | > 90 | < 0.01 | NC(=O)c1c(-c2ccc(Oc3ccccc3)cc2)nn2c1NCCC2C1CCN(C2CCN(C(=O)N3CCC(CN4CCC(c5ccc6c(c5)C(=O)N(C5CCC(=O)NC5=O)C6=O)CC4)CC3)CC2)CC1 (centres unmarked) [Compound 355, 7-(1′-(4-((4-(2-(2,6-dioxopiperidin-3-yl)-1,3-dioxoisoindolin-5-yl)piperidin-1-yl)methyl)piperidine-1-carbonyl)-[1,4′-bipiperidin]-4-yl)-2-(4-phenoxyphenyl)-4,5,6,7-tetrahydropyrazolo[1,5-a]pyrimidine-3-carboxamide] | 1 to 10 | 1 to 10
11 | – | – | > 50 | > 0.05 | NC(=O)c1c(-c2ccc(Oc3ccccc3)cc2)nn2c1NCC[C@H]2C1CCN(C2CCN(C(=O)N3CCN(c4ccc5c(c4)CN(C4CCC(=O)NC4=O)C5=O)CC3)CC2)CC1 (stereo partly drawn) [Compound 378, (7S)-7-(1′-(4-(2-(2,6-dioxopiperidin-3-yl)-1-oxoisoindolin-5-yl)piperazine-1-carbonyl)-[1,4′-bipiperidin]-4-yl)-2-(4-phenoxyphenyl)-4,5,6,7-tetrahydropyrazolo[1,5-a]pyrimidine-3-carboxamide] | > 10 | > 10
12 | 0.01 to 0.05 | > 90 | – | – | Nc1ncnc2c1c(-c1ccc(Oc3ccccc3)cc1)nn2[C@@H]1CCCN(C(=O)N2CC(N3CCN(c4ccc5c(c4)C(=O)N([C@@H]4CCC(=O)NC4=O)C5=O)CC3)C2)C1 [Compound 491, 5-(4-(1-((R)-3-(4-amino-3-(4-phenoxyphenyl)-1H-pyrazolo[3,4-d]pyrimidin-1-yl)piperidine-1-carbonyl)azetidin-3-yl)piperazin-1-yl)-2-((R)-2,6-dioxopiperidin-3-yl)isoindoline-1,3-dione] | < 1 | < 1
13 | < 0.01 | > 90 | – | – | Nc1ncnc2c1c(-c1ccc(Oc3ccccc3)cc1)nn2C1CCN(CC2CN(CC3CCN(c4ccc5c(c4)CN(C4CCC(=O)NC4=O)C5=O)CC3)C2)CC1 (centres unmarked) [Compound 440] | < 1 | 1 to 10
14 | < 0.01 | > 90 | – | – | Nc1ncnc2c1c(-c1ccc(Oc3ccccc3)cc1)nn2[C@@H]1CCCN(C(=O)N2CC(N3CCN(c4ccc5c(c4)CN([C@@H]4CCC(=O)NC4=O)C5=O)CC3)C2)C1 [Compound 492, (R)-3-(5-(4-(1-((R)-3-(4-amino-3-(4-phenoxyphenyl)-1H-pyrazolo[3,4-d]pyrimidin-1-yl)piperidine-1-carbonyl)azetidin-3-yl)piperazin-1-yl)-1-oxoisoindolin-2-yl)piperidine-2,6-dione] | < 1 | < 1
15 | < 0.01 | > 75 | – | – | Nc1ncnc2c1c(-c1ccc(Oc3ccccc3)cc1)nn2[C@@H]1CCCN(C2CCN(CC3CCN(c4ccc(C(=O)NC5CCC(=O)NC5=O)cc4)CC3)CC2)C1 (stereo partly drawn) [Compound 516, 4-(4-(((R)-3-(4-amino-3-(4-phenoxyphenyl)-1H-pyrazolo[3,4-d]pyrimidin-1-yl)-[1,4′-bipiperidin]-1′-yl)methyl)piperidin-1-yl)-N-(2,6-dioxopiperidin-3-yl)benzamide] | 1 to 10 | < 1
16 | 0.01 to 0.05 | > 90 | – | – | Nc1ncnc2c1c(-c1ccc(Oc3ccccc3)cc1)nn2C1CCN(CCCN2CCC(CN3CCC(c4ccc(N5CCC(=O)NC5=O)cc4)CC3)CC2)CC1 [Compound 555, 1-(4-(1-((1-(3-(4-(4-amino-3-(4-phenoxyphenyl)-1H-pyrazolo[3,4-d]pyrimidin-1-yl)piperidin-1-yl)propyl)piperidin-4-yl)methyl)piperidin-4-yl)phenyl)dihydropyrimidine-2,4(1H,3H)-dione] | < 1 | < 1
17 | – | – | > 75 | > 0.05 | NC(=O)c1c(-c2ccc(Oc3ccccc3)cc2)nn2c1NCC[C@H]2C1CCN(CC2CCN(CCN3CCN(c4ccc5c(c4)CN(C4CCC(=O)NC4=O)C5=O)CC3)CC2)CC1 (stereo partly drawn) [Compound 332, (7S)-7-(1-((1-(2-(4-(2-(2,6-dioxopiperidin-3-yl)-1-oxoisoindolin-5-yl)piperazin-1-yl)ethyl)piperidin-4-yl)methyl)piperidin-4-yl)-2-(4-phenoxyphenyl)-4,5,6,7-tetrahydropyrazolo[1,5-a]pyrimidine-3-carboxamide] | 1 to 10 | 1 to 10
